Measurements: patent US20240148821A1, “PHARMACEUTICAL USE OF CYCLIC PEPTIDE COMPOUND” (CHUGAI SEIYAKU KABUSHIKI KAISHA, priority 2021, published 2024)
Numbered stars: 1 amine (or outer) side, 2 acyl side, 3 side chain; on linkers, the order of the positions; unused ones are H or OH. Bridge positions count the residues as written; N and C are the ends. Square brackets hold non-standard residues; d marks the D form. Peptide text beside a SMILES is read from it. * marks the point of attachment. hPhe(3-Cl-4-CF3) = N[C@@H](CCc1ccc(C(F)(F)F)c(Cl)c1)C(=O)O; NMePhe(4-Me) = CN[C@@H](Cc1ccc(C)cc1)C(=O)O; NMedβ3hAla = C[C@H](CC(=O)[*:2])N(C)[*:1]; NMeNva(5,5-F2) = CN[C@@H](CCC(F)F)C(=O)O; NMeGly(cPent) = CN[C@H](C(=O)O)C1CCCC1; NMeCha = CN[C@@H](CC1CCCCC1)C(=O)O; NMeChg = CN[C@H](C(=O)O)C1CCCCC1; NMeF = CN[C@@H](Cc1ccccc1)C(=O)O; NMeI = CC[C@H](C)[C@H](NC)C(=O)O; NMeD = CN[C@@H](CC(=O)O)C(=O)O; NMeL = CN[C@@H](CC(C)C)C(=O)O; NMeV = CN[C@H](C(=O)O)C(C)C; d(β3hA) = C[C@@H](N)CC(=O)O; Morpholide = C1CN(*)CCO1; NMeA = CN[C@@H](C)C(=O)O; Piperidide = C1CCN(*)CC1; dNMeA = CN[C@H](C)C(=O)O; Ac5c = NC1(C(=O)O)CCCC1; Abu = CC[C@H](N)C(=O)O; Sar = CNCC(=O)O

The compounds below were run on Human pancreatic cancer cell line AsPC-1 (G12D mutation Kras) (assay: AsPC-1 cell growth inhibition (AsPC-1 CGI)). Conditions: read-out: AsPC-1 cell growth inhibition, 50% growth inhibitory concentration (IC50 value); 96 hours, CellTiter-Glo, values classified in ranges.
Assay type: cell-based
Procedure: Test compounds were serially dilated with dimethyl sulfoxide, and 200 nL was then dispensed to a U-bottom 96-well plate using Labcyte Echo. […] The cell suspension was dispensed to a. plate containing a test compound at 100 μL per well and incubated at 37° C. in a 5% carbon dioxide gas incubator. 96 hours later, 80 μL of CellTiter-Glo (Promega) was added to each well and fluorescence was measured.

`CC[C@@H]1NC(=O)[C@H](CC(C)C)N(C)C(=O)C[C@@H](C(=O)N2CCCCC2)N(C)C(=O)[C@H](C2CCCCC2)N(C)C(=O)C2(CCCC2)NC(=O)[C@@H]2CCCN2C(=O)[C@H](CCc2ccc(C(F)(F)F)c(Cl)c2)NC(=O)CN(C)C(=O)[C@H](CC2CCCCC2)N(C)C(=O)CN(C)C(=O)CN(C)C1=O` [Compound 1775] ([NMeL][Abu][Sar][Sar][NMeCha][Sar][hPhe(3-Cl-4-CF3)]P[Ac5c][NMeChg][NMeD]-Piperidide; lactam N-11) and `CC(C)C[C@H]1C(=O)N[C@@H](CO)C(=O)N(C)CC(=O)N(C)CC(=O)N(C)[C@@H](CC2CCCCC2)C(=O)N(C)CC(=O)N[C@@H](CCc2ccc(C(F)(F)F)c(Cl)c2)C(=O)N2CCC[C@H]2C(=O)NC2(CCCC2)C(=O)N(C)[C@@H](C2CCCCC2)C(=O)N(C)[C@H](C(=O)N2CCCCC2)CC(=O)N1C` [Compound 1799] ([NMeL]S[Sar][Sar][NMeCha][Sar][hPhe(3-Cl-4-CF3)]P[Ac5c][NMeChg][NMeD]-Piperidide; lactam N-11) cannot be ordered by IC50: over 500 nM for the first, over 500 nM for the second.

Going from `CC[C@H](C)[C@@H]1NC(=O)[C@H](C)N(C)C(=O)C[C@@H](C)NC(=O)[C@H](C(C)C)N(C)C(=O)C2(CCCC2)NC(=O)[C@@H]2CCCN2C(=O)[C@H](CCc2ccc(C(F)(F)F)c(Cl)c2)NC(=O)CN(C)C(=O)[C@H](Cc2ccccc2)N(C)C(=O)[C@@H]2CCCN2C(=O)CN(C)C1=O` [Compound 1778] (cyclo([Ac5c][NMeV][d(β3hA)][NMeA]I[Sar]P[NMeF][Sar][hPhe(3-Cl-4-CF3)]P)) to `CC[C@H](C)[C@@H]1NC(=O)[C@H](CC(C)C)N(C)C(=O)C[C@@H](C)N(C)C(=O)[C@H]([C@@H](C)CC)N(C)C(=O)C2(CCCC2)NC(=O)[C@@H]2CCCN2C(=O)[C@H](CCc2ccc(C(F)(F)F)c(Cl)c2)NC(=O)CN(C)C(=O)[C@H](Cc2ccc(C)cc2)N(C)C(=O)CN(C)C(=O)CN(C)C1=O` [Compound 1792] (cyclo([Ac5c][NMeI][NMedβ3hAla][NMeL]I[Sar][Sar][NMePhe(4-Me)][Sar][hPhe(3-Cl-4-CF3)]P)), the IC50 falls from over 500 nM to at most 20 nM.

Compared with `CC[C@H](C)[C@@H]1NC(=O)[C@H](CC(C)C)N(C)C(=O)C[C@@H](C(=O)N(C)C)N(C)C(=O)[C@H](C2CCCC2)N(C)C(=O)C2(CCCC2)NC(=O)[C@@H]2CCCN2C(=O)[C@H](CCc2ccc(C(F)(F)F)c(Cl)c2)NC(=O)CN(C)C(=O)[C@H](Cc2ccc(C)cc2)N(C)C(=O)CN(C)C(=O)CN(C)C1=O` [Compound 1779] ([NMeL]I[Sar][Sar][NMePhe(4-Me)][Sar][hPhe(3-Cl-4-CF3)]P[Ac5c][NMeGly(cPent)][NMeD]-NMe2; lactam N-11), `CC[C@H](C)[C@@H]1NC(=O)[C@H](CC(C)C)N(C)C(=O)C[C@@H](C(=O)N2CCCCC2)N(C)C(=O)[C@H](CCC(F)F)N(C)C(=O)C2(CCCC2)NC(=O)[C@@H]2CCCN2C(=O)[C@H](CCc2ccc(C(F)(F)F)c(Cl)c2)NC(=O)CN(C)C(=O)[C@H](CC2CCCCC2)N(C)C(=O)CN(C)C(=O)CN(C)C1=O` [Compound 1782] ([NMeL]I[Sar][Sar][NMeCha][Sar][hPhe(3-Cl-4-CF3)]P[Ac5c][NMeNva(5,5-F2)][NMeD]-Piperidide; lactam N-11) is higher in IC50: at most 20 nM for the first, over 500 nM for the second.

Compound `CC[C@H](C)[C@@H]1NC(=O)[C@H](C)N(C)C(=O)C[C@@H](C(=O)N2CCOCC2)N(C)C(=O)[C@H](C(C)C)N(C)C(=O)C2(CCCC2)NC(=O)[C@@H]2CCCN2C(=O)[C@H](CCc2ccc(C(F)(F)F)c(Cl)c2)NC(=O)[C@@H](C)N(C)C(=O)[C@H](CC2CCCCC2)N(C)C(=O)[C@@H]2CCCN2C(=O)CN(C)C1=O` [Compound 1788] ([NMeA]I[Sar]P[NMeCha][dNMeA][hPhe(3-Cl-4-CF3)]P[Ac5c][NMeV][NMeD]-Morpholide; lactam N-11) has an IC50 of over 500 nM.
